For series [1], the system named is depletion of serotonin (5HT) induced by H75/12. Put plainly: Test using H75/12: inhibition of serotonin depletion. Type of series: in vivo. The settings on record: Mus musculus, ip, 30 min before H75/12, mice, read-out: Percentage of inhibition of depletion on 5 HT; for inhibition at 40 mg/kg: 40 mg/kg I.P.; for inhibition at 30 mg/kg: 30 mg/kg I.P.; for inhibition at 20 mg/kg: 20 mg/kg I.P.; for inhibition at 10 mg/kg: 10 mg/kg I.P. Here is the method:
In the experiments carried out, the H 75/12 was administered on two occasions with an interval of two hours between them, in a proportion of 100mg/kg by intraperitoneal method.
In Table I hereafter, the first figure represents the first dose in mg/kg by intraperitoneal method, of the product according to the invention, administered thirty minutes before the injection of H75/12, and the second figure represents the percentage of inhibition of the depletion of serotonin in relation to a reference batch which has received only H75/12. The compounds signified by Compound Nos. 1-14 in Table 1 are indicated hereafter in Table II.

Another series relates to mice. Nature of the series: Supramaximal electrical shock test (corneal electrodes). In kind it is in vivo. The following applies: Mus musculus, po, P.O., dose which protects 50% of the animals from tonic tension, read-out: ED 50 ELECTROSHOCK
The test system of series [2] is hypotension (H), tachycardia (T), and positive inotropism (I^+) induced by isoprenaline. Put plainly: Cardiovascular parameters: modification of isoprenaline-induced hypotension, tachycardia and positive inotropism. Type of series: in vivo, chloralised dogs. The following applies: Canis lupus familiaris. The procedure: Experiments were carried out on chloralised dogs: these consisted of measuring, as a percentage relative to the […] of reference animals, the modifications caused by the products of the invention, administered in a proportion of 5mg/kg by intravenous route, on hypotension (H), tachycardia (T), and positive inotropism (I^+) induced by isoprenaline previously administered in a proportion of 0.5μg/kg by intravenous route.

The nature of series [3]: LD50 oral, acute toxicity. The following applies: mouse, in vivo; oral administration; mice.
The mark [4] stands for this setting: 5 mg/kg intravenous, isoprenaline 0.5 μg/kg intravenous, chloralised dogs, read-out: Cardiovascular parameters, H (hypotension).
Setting [5] is: 5 mg/kg intravenous, isoprenaline 0.5 μg/kg intravenous, chloralised dogs, read-out: Cardiovascular parameters, I^+ (positive inotropism).
The mark [6] stands for this setting: 5 mg/kg intravenous, isoprenaline 0.5 μg/kg intravenous, chloralised dogs, read-out: Cardiovascular parameters, T (tachycardia).

Like-named read-outs stand apart in the source and are kept apart here. A value given as a limit tells only on which side of the number the result lay.

For `CC(C)NC1CCCC(Oc2ccc(Cl)cc2)C1O` (stereo not shown) [compound 2], in series [1], the inhibition (in general, the drop in the measured response relative to a control, in per cent) at 40 mg/kg is 42%. For the same molecule, the ED50 in the series on mice is 300 mg/kg. Further, the change in vivo at 5 mg/kg was 30% in series [2] (setting [4]), -15% in series [2] (setting [5]) and -20% in series [2] (setting [6]).
Regarding `CC(C)CCNC1CCCC(Oc2cccc(C(F)(F)F)c2)C1O` (stereo not shown) [compound 7], the inhibition at 30 mg/kg in series [1] came out at 93%. In addition, the ED50 in the series on mice is 30 mg/kg. Further, the change in vivo at 5 mg/kg is -50% in series [2] (setting [4]), -38% in series [2] (setting [5]) and -50% in series [2] (setting [6]).
As to `CC(C)NCC(O)COc1cccc2ccccc12` (stereo not shown) [PROPRANOLOL, propranolol, reference compound], the change in vivo at 5 mg/kg in series [2] (iv, read-out: Cardiovascular parameters, H (hypotension)) is -100%; in series [2] (iv, read-out: Cardiovascular parameters, I^+ (positive inotropism)), -98%; in series [2] (iv, read-out: Cardiovascular parameters, T (tachycardia)) it was -92%.
Take `CC(C)NC1CCCC(Oc2ccc(F)cc2)C1O` (stereo not shown) [compound 8]: the inhibition at 40 mg/kg in series [1] was determined as 59%. For the same molecule, the ED50 in the series on mice is 200 mg/kg. Also, the change in vivo at 5 mg/kg is 0% in series [2] (setting [4]), -27% in series [2] (setting [5]) and -10% in series [2] (setting [6]).
The like results for `CC(C)NC1CCCC(Oc2cccc(C(F)(F)F)c2)C1O` (stereo not shown) [compound 6] were, in that order, 74%, under 100 mg/kg, -18%, 0% and -20%.
Turning to `CC(C)NC1CCCC(Oc2ccccc2)C1O` (stereo not shown) [compound 5], the inhibition at 40 mg/kg in series [1] came to 26%. For the same molecule, the change in vivo at 5 mg/kg was 0% in series [2] (setting [4]), 25% in series [2] (setting [5]) and -39% in series [2] (setting [6]).
For the molecule `CC(Cc1ccccc1)NC1CCCC(Oc2ccc(F)cc2)C1O` (stereo not shown) [compound 12], the inhibition at 20 mg/kg in series [1] came out at 120%. Further, the ED50 in the series on mice was under 50 mg/kg. For the same molecule, the values for the change in vivo at 5 mg/kg in series [2] (setting [4]), in series [2] (setting [5]) and in series [2] (setting [6]) were 35%, 0% and -35%, respectively.
Regarding `CC(C)CCNC1CCCC(Oc2ccc(Cl)cc2)C1O` (stereo not shown) [compound 4], the inhibition at 10 mg/kg in series [1] was 59%. Besides, in the series with mice, the ED50 is 25 mg/kg. Further, the change in vivo at 5 mg/kg in series [2] (setting [4]), in series [2] (setting [5]) and in series [2] (setting [6]) was 0% in each case.
Consider `CCCCNC1CCCC(Oc2cccc(Cl)c2)C1O` (stereo not shown) [compound 10], for which the inhibition at 30 mg/kg in series [1] amounted to 92%. In the series on mice, the ED50 came to 80 mg/kg. In addition, the change in vivo at 5 mg/kg in series [2] (setting [4]), in series [2] (setting [5]) and in series [2] (setting [6]) was 0% throughout.
Consider `CC(C)CNC1CCCC(Oc2ccc(Cl)cc2)C1O` (stereo not shown) [compound 3], for which the inhibition at 10 mg/kg in series [1] worked out at 30%. Also, the ED50 in the series on mice worked out at 100 mg/kg. Moreover, the change in vivo at 5 mg/kg in series [2] (setting [4]), in series [2] (setting [5]) and in series [2] (setting [6]) was 0% in each case.
`CC(C)NC1CCCC(Oc2cccc(Cl)c2)C1O` (stereo not shown) [Compound No. 1, 2-hydroxy-3-(3'-chloro-phenoxy)-N-isopropyl-cyclohexylamine]: in series [1], the inhibition at 40 mg/kg turned out to be 99%. Moreover, the ED50 in the series on mice stood at 100 mg/kg. Besides, the change in vivo at 5 mg/kg in series [2] (setting [4]), in series [2] (setting [5]) and in series [2] (setting [6]) was 0% each time. Further, the LD50 (as a rule, the dose at which mortality reaches 50%) in series [3] was 588 mg/kg.
Turning to `NC1CCCC(Oc2ccc(Cl)cc2)C1O` (stereo not shown) [compound 13], in series [1], the inhibition at 40 mg/kg was 62%. Further, the change in vivo at 5 mg/kg in series [2] (setting [4]), in series [2] (setting [5]) and in series [2] (setting [6]) was 0% each time.
For the molecule `CC(Cc1ccccc1)NC1CCCC(Oc2ccccc2)C1O` (stereo not shown) [compound 11], in series [1], the inhibition at 40 mg/kg was determined as 118%. Moreover, the change in vivo at 5 mg/kg in series [2] (setting [4]) is 0%; in series [2] (setting [5]) it was -10%; in series [2] (setting [6]), -60%.
As for `CN(C)C1CCCC(Oc2ccc(F)cc2)C1O` (stereo not shown) [compound 9], in series [1], the inhibition at 20 mg/kg stood at 18%. Moreover, in the series on mice, the ED50 was 250 mg/kg. Also, the change in vivo at 5 mg/kg was 30% in series [2] (setting [4]), 25% in series [2] (setting [5]) and 9% in series [2] (setting [6]).
In the case of `CN(C)C1CCCC(Oc2ccc(Cl)cc2)C1O` (stereo not shown) [compound 14], the inhibition at 40 mg/kg in series [1] stood at 38%. Also, the change in vivo at 5 mg/kg in series [2] (setting [4]), in series [2] (setting [5]) and in series [2] (setting [6]) was 0% throughout.
